Measured values: patent publication US20240101544A1, “INHIBITORS OF QPCTL AND QPCT” (priority 2022, published 2024)

Columns and labels:
[1] = biological target: T1, QPCTL (Homo sapiens (Human), UniProt Q9NXS2); experiment: QPCTL Enzymatic Activity Assay (coupled-enzyme fluorescent assay, H-Gln-AMC substrate); format: biochemical; conditions: recombinant truncated human QPCTL 10-12 nM, 10 μM H-Gln-AMC; read-out: QPCTL Inhibition IC50
Target sequence in this assay (Q9NXS2 53-382): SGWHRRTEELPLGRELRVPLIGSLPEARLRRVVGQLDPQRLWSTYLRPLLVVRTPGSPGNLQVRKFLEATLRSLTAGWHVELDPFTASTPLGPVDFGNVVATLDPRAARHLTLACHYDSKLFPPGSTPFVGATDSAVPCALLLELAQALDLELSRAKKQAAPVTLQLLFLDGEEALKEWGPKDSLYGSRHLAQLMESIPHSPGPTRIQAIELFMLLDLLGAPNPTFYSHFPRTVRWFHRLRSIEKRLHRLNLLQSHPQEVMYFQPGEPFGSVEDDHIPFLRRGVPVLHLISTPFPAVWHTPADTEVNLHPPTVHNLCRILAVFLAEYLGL

[2] = biological target: QPCT (rhQPCT) (Homo sapiens (Human), UniProt Q16769); experiment: QPCT Enzymatic Activity Assay (coupled-enzyme fluorescent assay, H-Gln-AMC substrate); format: biochemical; conditions: rhQPCT 10-12 nM, 10 μM H-Gln-AMC; read-out: QPCT Inhibition IC50
QPCT (rhQPCT), sequence (Q16769 29-361): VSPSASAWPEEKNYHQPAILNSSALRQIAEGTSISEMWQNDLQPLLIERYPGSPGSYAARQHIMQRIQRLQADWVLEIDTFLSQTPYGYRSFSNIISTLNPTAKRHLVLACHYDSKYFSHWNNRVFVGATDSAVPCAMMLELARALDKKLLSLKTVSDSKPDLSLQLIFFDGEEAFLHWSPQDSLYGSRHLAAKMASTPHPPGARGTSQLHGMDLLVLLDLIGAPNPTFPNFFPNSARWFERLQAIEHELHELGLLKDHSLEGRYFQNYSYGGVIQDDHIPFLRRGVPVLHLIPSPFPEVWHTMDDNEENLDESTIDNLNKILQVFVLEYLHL
Outline: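 Coupled assay: recombinant human QPCT converts H-Gln-AMC (10 μM final) to pyroglutamyl-AMC, 60 min at 37 °C, stopped by boiling; PGPEP-1 then releases AMC.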

[3] = biological target: T1, QPCTL; experiment: Inhibition of Cellular QPCTL Activity - FACS flow cytometry, CC2C6 anti-CD47 staining of Ramos cells; format: cell-based; conditions: Ramos human Burkitts Lymphoma cells, 72-96 hours, % CC2C6-positive cells
Experimental: Inhibition of Cellular QPCTL Activity—Fluorescence-Activated Cell Sorting (FACS) Flow Cytometry
The cells were incubated for 72-96 hours at 37° C. and 5% CO2. At the end of incubation period, cells were transferred to tubes and spun down at 1200 rpm for 5 minutes. […] After antibody staining, the cells were washed with FACS buffer then stained with SYTOX™ Blue dead cell stain at a dilution of 1:1000. Cells were analyzed on a BD FACS Melody and a positive staining gate on live cells was set using the 0.1% DMSO controls. […] Flow cytometry data were analyzed by FlowJo software and concentration-response-curves and IC50 values were generated using Collaborative Drug Discovery software.
Target sequence in this assay (Q9NXS2 whole entry, the tested form may be a part): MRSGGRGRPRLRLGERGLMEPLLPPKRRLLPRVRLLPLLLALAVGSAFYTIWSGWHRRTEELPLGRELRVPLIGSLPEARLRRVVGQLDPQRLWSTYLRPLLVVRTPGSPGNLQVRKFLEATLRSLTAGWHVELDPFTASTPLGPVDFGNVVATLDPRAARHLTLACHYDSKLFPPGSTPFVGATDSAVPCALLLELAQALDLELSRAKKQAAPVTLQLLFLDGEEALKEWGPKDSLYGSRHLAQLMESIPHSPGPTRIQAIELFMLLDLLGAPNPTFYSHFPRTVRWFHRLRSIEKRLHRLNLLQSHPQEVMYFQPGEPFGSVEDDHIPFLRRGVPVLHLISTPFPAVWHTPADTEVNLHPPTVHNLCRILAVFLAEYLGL

[4] = biological target: T1, QPCTL; experiment: Inhibition of Cellular QPCTL Activity - Imaging Assay, CC2C6 anti-CD47 staining of DLD-1 cells; format: cell-based; conditions: 72 hours, CC2C6 anti-CD47 high-content imaging
Experimental: Inhibition of Cellular QPCTL Activity—Imaging Assay
The cells were incubated for 72 hours at 37° C. and 5% CO2. […] After primary antibody staining, the cells were fixed with 4% paraformaldehyde in the incubation buffer for 15 minutes at room temperature. […] Cells were analyzed on a ImageXpress Pico Automated Cell Imaging System (Molecular Devices) using 10× objective (3×3 fields).
Target sequence in this assay (Q9NXS2 whole entry, the tested form may be a part): as above

SMILES | IC50 [1] | IC50 [2] | IC50 [3] | IC50 [4]
Cn1cnnc1C1CCN(c2c(C#N)cccc2-c2cccnc2)CC1 [Example 2, 2-[4-(4-methyl-4H-1,2,4-triazol-3-yl)piperidin-1-yl]-3-(pyridin-3-yl)benzonitrile] | < 100 nM | < 100 nM | 100 to 1000 nM | 
COc1ccncc1-c1cccc(C#N)c1N1CCC(c2nncn2C)CC1 [Example 3, 3-(4-methoxypyridin-3-yl)-2-[4-(4-methyl-4H-1,2,4-triazol-3-yl)piperidin-1-yl]benzonitrile] | < 100 nM | < 100 nM | 100 to 1000 nM | 
Cn1cnnc1C1CCN(c2c(C#N)cccc2-c2cncc3c2cnn3C)CC1 [Example 4, 3-{1-methyl-1H-pyrazolo[3,4-c]pyridin-4-yl}-2-[4-(4-methyl-4H-1,2,4-triazol-3-yl)piperidin-1-yl]benzonitrile] | 100 to 1000 nM | 100 to 1000 nM | 1000 to 10000 nM | 
Cn1cnnc1C1CCN(c2c(C#N)cccc2-c2ccc(OCCO)nc2)CC1 [Example 6, 3-[6-(2-hydroxyethoxy)pyridin-3-yl]-2-[4-(4-methyl-4H-1,2,4-triazol-3-yl)piperidin-1-yl]benzonitrile] | < 100 nM | < 100 nM | 1000 to 10000 nM | 
CN(C)CCOc1ccncc1-c1cccc(C#N)c1N1CCC(c2nncn2C)CC1 [Example 8, 3-{4-[2-(dimethylamino)ethoxy]pyridin-3-yl}-2-[4-(4-methyl-4H-1,2,4-triazol-3-yl)piperidin-1-yl]benzonitrile] | < 100 nM | < 100 nM | 1000 to 10000 nM | 
Cn1cnnc1C1CCN(c2c(C#N)cccc2-c2cnccc2OCCO)CC1 [Example 9, 3-[4-(2-hydroxyethoxy)pyridin-3-yl]-2-[4-(4-methyl-4H-1,2,4-triazol-3-yl)piperidin-1-yl]benzonitrile] | < 100 nM | < 100 nM | 1000 to 10000 nM | 
Cn1cnnc1C1CCN(c2c(C#N)cccc2-c2cnccc2Cl)CC1 [Example 10, 3-(4-chloropyridin-3-yl)-2-[4-(4-methyl-4H-1,2,4-triazol-3-yl)piperidin-1-yl]benzonitrile] | < 100 nM | < 100 nM | 100 to 1000 nM | 
Cn1cnnc1C1CCN(c2c(C#N)cccc2-c2ccnnc2)CC1 [Example 11, 2-[4-(4-methyl-4H-1,2,4-triazol-3-yl)piperidin-1-yl]-3-(pyridazin-4-yl)benzonitrile] | < 100 nM | < 100 nM | < 100 nM | 
Cn1cnnc1C1CCN(c2c(C#N)cccc2-c2cncc3c2ccn3C)CC1 [Example 12, 3-{1-methyl-1H-pyrrolo[2,3-c]pyridin-4-yl}-2-[4-(4-methyl-4H-1,2,4-triazol-3-yl)piperidin-1-yl]benzonitrile] | < 100 nM | < 100 nM | 1000 to 10000 nM | 
Cn1cnnc1C1CCN(c2c(C#N)cccc2-c2ccc3ocnc3c2)CC1 [Example 15, 3-(1,3-benzoxazol-5-yl)-2-[4-(4-methyl-4H-1,2,4-triazol-3-yl)piperidin-1-yl]benzonitrile] | 100 to 1000 nM | < 100 nM | 1000 to 10000 nM | 
Cn1cc2c(-c3cccc(C#N)c3N3CCC(c4nncn4C)CC3)cncc2n1 [Example 16, 3-{2-methyl-2H-pyrazolo[3,4-c]pyridin-4-yl}-2-[4-(4-methyl-4H-1,2,4-triazol-3-yl)piperidin-1-yl]benzonitrile] | < 100 nM | < 100 nM | 100 to 1000 nM | 
Cn1cnnc1C1CCN(c2c(C#N)cccc2-c2ccc3nonc3c2)CC1 [Example 19, 3-(2,1,3-benzoxadiazol-5-yl)-2-[4-(4-methyl-4H-1,2,4-triazol-3-yl)piperidin-1-yl]benzonitrile] | 100 to 1000 nM | < 100 nM | 1000 to 10000 nM | 
COc1ccc(-c2ccc(F)nc2)c(N2CCC(c3nncn3C)CC2)c1C#N [Example 24, 3-(6-fluoropyridin-3-yl)-6-methoxy-2-[4-(4-methyl-4H-1,2,4-triazol-3-yl)piperidin-1-yl]benzonitrile] | < 100 nM | < 100 nM | < 100 nM | < 100 nM
COc1ccc(-c2ccnnc2)c(N2CCC(c3nncn3C)CC2)c1C#N [Example 26, 6-methoxy-2-[4-(4-methyl-4H-1,2,4-triazol-3-yl)piperidin-1-yl]-3-(pyridazin-4-yl)benzonitrile] | < 100 nM | < 100 nM | < 100 nM | 
COc1ccncc1-c1ccc(Cl)c(C#N)c1N1CCC(c2nncn2C)CC1 [Example 27, 6-chloro-3-(4-methoxypyridin-3-yl)-2-[4-(4-methyl-4H-1,2,4-triazol-3-yl)piperidin-1-yl]benzonitrile] | < 100 nM | < 100 nM | 100 to 1000 nM | 
Cn1cnnc1C1CCN(c2c(-c3ccc(F)nc3)ccc(-c3ccccc3)c2C#N)CC1 [Example 28, 4-(6-fluoropyridin-3-yl)-3-[4-(4-methyl-4H-1,2,4-triazol-3-yl)piperidin-1-yl]-[1,1′-biphenyl]-2-carbonitrile] | < 100 nM | < 100 nM | < 100 nM | 
Cn1cnnc1C1CCN(c2c(-c3ccc(F)nc3)ccc(Cl)c2C#N)CC1 [Example 30, 6-chloro-3-(6-fluoropyridin-3-yl)-2-[4-(4-methyl-4H-1,2,4-triazol-3-yl)piperidin-1-yl]benzonitrile] | < 100 nM | < 100 nM | < 100 nM | 
Cn1cnnc1C1CCN(c2c(-c3ccnnc3)ccc(Cl)c2C#N)CC1 [Example 33, 6-chloro-2-[4-(4-methyl-4H-1,2,4-triazol-3-yl)piperidin-1-yl]-3-(pyridazin-4-yl)benzonitrile] | < 100 nM | < 100 nM | < 100 nM | 
Cn1cc(-c2ccc(-c3ccnnc3)c(N3CCC(c4nncn4C)CC3)c2C#N)cn1 [Example 36, 6-(1-methyl-1H-pyrazol-4-yl)-2-[4-(4-methyl-4H-1,2,4-triazol-3-yl)piperidin-1-yl]-3-(pyridazin-4-yl)benzonitrile] | < 100 nM | < 100 nM | < 100 nM | 
CN(C)CCOc1ccc(-c2ccc(F)nc2)c(N2CCC(c3nncn3C)CC2)c1C#N [Example 37, 6-[2-(dimethylamino)ethoxy]-3-(6-fluoropyridin-3-yl)-2-[4-(4-methyl-4H-1,2,4-triazol-3-yl)piperidin-1-yl]benzonitrile] | < 100 nM | < 100 nM | < 100 nM | 
Cn1cnnc1C1CCN(c2c(C#N)ccc(F)c2-c2ccnnc2)CC1 [Example 39, 4-fluoro-2-[4-(4-methyl-4H-1,2,4-triazol-3-yl)piperidin-1-yl]-3-(pyridazin-4-yl)benzonitrile] | < 100 nM | < 100 nM | 100 to 1000 nM | 
Cn1cnnc1C1CCN(c2c(C#N)cccc2-c2cncc(O)c2)CC1 [Example 120, 3-(5-hydroxypyridin-3-yl)-2-(4-(4-methyl-4H-1,2,4-triazol-3-yl)piperidin-1-yl)benzonitrile] | < 100 nM | < 100 nM |  | < 100 nM
Cn1ccc(-c2ccc(-c3ccc(F)nc3)c(N3CCN(c4nncn4C)CC3)c2C#N)n1 [Example 122, 3-(6-fluoropyridin-3-yl)-6-(1-methyl-1H-pyrazol-3-yl)-2-(4-(4-methyl-4H-1,2,4-triazol-3-yl)piperazin-1-yl)benzonitrile] | < 100 nM | < 100 nM |  | < 100 nM
Cn1cnnc1C1CCN(c2c(C#N)cccc2-c2ccc3c(c2)COB3O)CC1 [Example 123, 3-(1-hydroxy-1,3-dihydrobenzo[c][1,2]oxaborol-5-yl)-2-(4-(4-methyl-4H-1,2,4-triazol-3-yl)piperidin-1-yl)benzonitrile] | < 100 nM | < 100 nM |  | 1000 to 10000 nM
Cn1ccc(-c2ccc(-c3ccc(O)c(C=O)c3)c(N3CCC(c4nncn4C)CC3)c2C#N)n1 [Example 124, 3′-formyl-4′-hydroxy-4-(1-methyl-1H-pyrazol-3-yl)-2-(4-(4-methyl-4H-1,2,4-triazol-3-yl)piperidin-1-yl)-[1,1′-biphenyl]-3-carbonitrile] | < 100 nM | < 100 nM |  | 100 to 1000 nM
Cn1cnnc1C1CCN(c2c(-c3ccc(F)nc3)ccnc2C#N)CC1 [Example 132, 6-fluoro-3′-(4-(4-methyl-4H-1,2,4-triazol-3-yl)piperidin-1-yl)-[3,4′-bipyridine]-2′-carbonitrile] | < 100 nM | < 100 nM |  | < 100 nM
Cn1cnnc1C1CCN(c2c(C#N)ccnc2-c2ccc(F)nc2)CC1 [Example 133, 6′-fluoro-3-(4-(4-methyl-4H-1,2,4-triazol-3-yl)piperidin-1-yl)-[2,3′-bipyridine]-4-carbonitrile] | < 100 nM | < 100 nM |  | < 100 nM
